Measured values: ChEMBL document CHEMBL1139560, “Synthesis of linked berberine dimers and their remarkably enhanced DNA-binding affinities” (Bioorg Med Chem Lett, 2005)

Tests used:
Format in all cases: nucleic-acid assay
Nucleic Acid [1] = assay: In vitro association constant for binding at d(AAGAATTCTT)2 done in 50 mM Tris-HCL in pH 6.35 at room temperature
Nucleic Acid [2] = assay: In vitro association constant for binding at d(TA AGAATTCTTA)2 done in 50 mM Tris-HCL in pH 6.35 at room temperature
Nucleic Acid [3] = assay: In vitro relative affinity for binding to d(AAGAATTCTT)2
Nucleic Acid [4] = assay: In vitro relative affinity for binding to d(TA AGAATTCTTA)2

Ka (Nucleic Acid [1])	Ka (Nucleic Acid [2])	RA (Nucleic Acid [3])	RA (Nucleic Acid [4])	Structure (SMILES)
57700	321000	4.7	11	COc1ccc2cc3[n+](cc2c1OCCCCCOc1c(OC)ccc2cc4[n+](cc12)CCc1cc2c(cc1-4)OCO2)CCc1cc2c(cc1-3)OCO2
12400	29300	1	1	COc1ccc2cc3[n+](cc2c1OC)CCc1cc2c(cc1-3)OCO2
34200	248000	2.8	8.5	COc1ccc2cc3[n+](cc2c1OCCCCCCOc1c(OC)ccc2cc4[n+](cc12)CCc1cc2c(cc1-4)OCO2)CCc1cc2c(cc1-3)OCO2

Structure (SMILES)	Ka (Nucleic Acid [1])	Ka (Nucleic Acid [2])	RA (Nucleic Acid [3])	RA (Nucleic Acid [4])
COc1ccc2cc3[n+](cc2c1OCCCOc1c(OC)ccc2cc4[n+](cc12)CCc1cc2c(cc1-4)OCO2)CCc1cc2c(cc1-3)OCO2	246000	2.76e+06	19.8	94.2
COc1ccc2cc3[n+](cc2c1OCCCCOc1c(OC)ccc2cc4[n+](cc12)CCc1cc2c(cc1-4)OCO2)CCc1cc2c(cc1-3)OCO2	87800	349000	7.1	11.9
